Like-named read-outs stand apart in the source and are kept apart here. A value given as a limit tells only on which side of the number the result lay.

This is an account of results in PMC9841576, “Characterisation of C101248: A novel selective THIK-1 channel inhibitor for the modulation of microglial NLRP3-inflammasome” (Neuropharmacology, 2023).

Data set [1] has as its system NLRP3-dependent release of IL-1β. Briefly: LPS/ATP-induced IL-1β release from differentiated THP1 cells overexpressing human THIK-1. In kind it is cell-based. As to conditions: Homo sapiens, THP-1; THIK-1 overexpressing differentiated THP1 cells, LPS/ATP; read-out: IC50, inhibition of IL-1β release. The method, then: THP1 cells, obtained from ATCC, are monocytes isolated from peripheral blood of a leukaemia patient. THP1 cells were grown in RPMI 1640 supplemented with 10% fetal bovine serum (FBS, Hyclone), 1% PenStrep (Invitrogen), and 1% GlutaMax (Invitrogen), and 0.05 mM of 2-mercaptoethanol. To overexpress human THIK-1, THP1 cells were differentiated with 100 ng/ml PMA for 24 h prior to transfection with THIK-1 mRNA synthesized as described in the supplementary material. Cell suspensions (2.5 × 10^6 cells in […]) in the presence of 200 μg/ml mRNA were electroporated with the MaxCyte (STX instrument) in an OC-25 MaxCyte Electroporation cassette using manufacturer settings for THP1 cells. Cell suspensions were transferred to a 6-well plate and allowed to recover for 20 min at 37 °C. Cells were seeded into 384-well plates (10,000 cells/well) for thallium flux assays or 96-well plates (50,000 cells/well) for inflammasome assays the following day. Overexpressing and mock-transfected cells were primed with 100 ng/ml of LPS for 3.5 h prior to addition of compounds 30 min before stimulation with 5 mM ATP. Supernatants were collected 2 h after addition of ATP and stored at −20 °C until the detection of IL-1β.
IL-1β from culture supernatants was measured with DuoSet ELISA kit (R&D Systems) following the manufacturer instructions.

The next data set is described as follows: CNS PK study in mice. As to conditions: 30 mg/kg single oral, male mice; for Kp: C57BL/6, mouse, 0.25-2 h post dose. It is filed as in vivo. The method, then: In CNS PK studies, rodents (C57BL/6 mice or Sprague Dawley rats) were administered C101248 by oral gavage at 10 or 30 mg/kg. At specified timepoints post dose (0.5, 1, 2 or 4 h), blood samples were collected and processed to plasma (centrifugation at 5000 rpm, 4 °C for 10 min). Immediately following blood withdrawal, cerebrospinal fluid (CSF) samples were collected from the cisterna magna, whole body perfusion was conducted, and brain samples were collected and weighed. Samples were stored frozen at −80 ± 10 °C until analysis. Plasma, CSF, and brain samples were analysed using a fit for purpose bioanalytical method (LC-MS/MS) against a calibration curve containing QC samples. Brain:plasma and CSF:plasma were calculated based on brain concentration/plasma concentration at the same timepoint. Unbound partition coefficient (Kpu,u) values were calculated based on unbound brain concentration/unbound plasma concentration at the same timepoint. Unbound concentrations were derived by adjusting plasma concentrations for the fraction unbound in plasma based on in vitro plasma protein binging (PPB) values and brain concentrations for the unbound fraction in brain tissue based on in vitro brain tissue binding (BTB) values.

A further data set deals with ROCK-2 (h) (Homo sapiens, UniProt O75116). As to the kind of experiment: Kinase selectivity. In kind it is biochemical. From the text: (§1) Supplement mmc1.docx, table 1 | column: IC50 (μM)
ROCK-2 (h), sequence (O75116 whole entry): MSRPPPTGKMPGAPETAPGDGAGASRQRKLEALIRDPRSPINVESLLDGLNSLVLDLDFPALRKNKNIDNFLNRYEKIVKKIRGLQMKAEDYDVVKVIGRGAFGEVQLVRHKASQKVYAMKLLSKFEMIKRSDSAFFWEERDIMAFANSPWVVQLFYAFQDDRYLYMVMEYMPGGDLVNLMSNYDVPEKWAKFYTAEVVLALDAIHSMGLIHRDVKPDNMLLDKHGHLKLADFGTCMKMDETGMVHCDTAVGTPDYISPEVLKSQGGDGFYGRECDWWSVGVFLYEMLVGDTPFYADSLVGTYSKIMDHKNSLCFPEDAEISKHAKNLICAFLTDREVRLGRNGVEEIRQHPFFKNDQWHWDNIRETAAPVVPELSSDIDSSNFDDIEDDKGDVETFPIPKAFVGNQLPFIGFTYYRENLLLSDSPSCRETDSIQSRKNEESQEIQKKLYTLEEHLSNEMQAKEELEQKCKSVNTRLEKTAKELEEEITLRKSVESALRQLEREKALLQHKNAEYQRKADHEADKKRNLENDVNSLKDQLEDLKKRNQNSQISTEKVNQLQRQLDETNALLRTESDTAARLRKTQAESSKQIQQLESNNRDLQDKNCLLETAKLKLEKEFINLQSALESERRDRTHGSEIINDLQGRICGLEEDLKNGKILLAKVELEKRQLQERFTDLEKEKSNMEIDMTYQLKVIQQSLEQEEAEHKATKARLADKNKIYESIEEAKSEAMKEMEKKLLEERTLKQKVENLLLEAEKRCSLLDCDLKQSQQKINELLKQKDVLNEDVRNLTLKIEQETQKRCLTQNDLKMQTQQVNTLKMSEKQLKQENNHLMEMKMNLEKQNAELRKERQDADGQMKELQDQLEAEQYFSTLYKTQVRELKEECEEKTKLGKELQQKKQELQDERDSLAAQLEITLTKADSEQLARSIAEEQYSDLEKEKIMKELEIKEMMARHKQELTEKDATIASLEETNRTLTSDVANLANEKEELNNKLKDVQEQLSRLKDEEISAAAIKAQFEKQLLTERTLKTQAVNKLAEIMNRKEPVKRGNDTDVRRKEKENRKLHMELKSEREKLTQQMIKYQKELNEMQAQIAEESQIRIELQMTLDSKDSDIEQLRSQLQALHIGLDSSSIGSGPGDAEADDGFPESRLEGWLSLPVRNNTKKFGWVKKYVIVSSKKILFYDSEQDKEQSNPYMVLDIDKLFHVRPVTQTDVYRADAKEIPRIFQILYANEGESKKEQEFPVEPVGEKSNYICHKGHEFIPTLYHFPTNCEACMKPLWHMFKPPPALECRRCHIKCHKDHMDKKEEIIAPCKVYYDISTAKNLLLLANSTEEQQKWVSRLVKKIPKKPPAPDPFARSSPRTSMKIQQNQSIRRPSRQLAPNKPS
For a further data set, the target named is Syk (h) (Homo sapiens, UniProt P43405). Briefly: Kinase selectivity. It is filed as biochemical.
Excerpt: as §1

The target of another data set is GSK3β (h) (Homo sapiens, UniProt P49841). As to the kind of experiment: Kinase selectivity. In kind it is biochemical.
GSK3β (h), sequence (P49841 whole entry): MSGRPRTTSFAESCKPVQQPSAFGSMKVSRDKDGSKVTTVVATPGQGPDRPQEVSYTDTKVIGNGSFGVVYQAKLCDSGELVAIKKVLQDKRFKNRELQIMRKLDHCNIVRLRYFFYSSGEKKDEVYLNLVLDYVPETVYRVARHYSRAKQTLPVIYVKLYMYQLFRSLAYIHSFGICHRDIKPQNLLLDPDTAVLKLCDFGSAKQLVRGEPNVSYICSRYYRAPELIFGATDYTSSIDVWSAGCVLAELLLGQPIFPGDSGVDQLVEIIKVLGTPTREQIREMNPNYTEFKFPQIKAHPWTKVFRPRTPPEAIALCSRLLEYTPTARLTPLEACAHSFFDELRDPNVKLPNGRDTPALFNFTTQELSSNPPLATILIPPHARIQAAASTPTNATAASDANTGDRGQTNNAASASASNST
Excerpt: as §1

The test system of data set [2] is other constitutively active resting conductance in microglia. Briefly: Whole-cell patch clamp of microglia in hippocampal slices: other resting and voltage-dependent currents. In kind it is cell-based, mouse. As to conditions: 5 μM. How it is done:
Acute hippocampal slices (300 μm thick), from 3 to 4 months old mice, were prepared using a specially adapted protective slicing solution ([Ting et al., 2014]) containing (mM) 93 choline chloride, 20 HEPES, 30 NaHCO3, 2.5 KCl, 0.5 CaCl2, 10 MgCl2, 1.2 NaH2PO4, 25 glucose, 1 kynurenic acid, 5 Na-ascorbate, 3 Na-pyruvate, pH adjusted to 7.4, bubbled with 95% O2/5% CO2 and cooled at <4 °C, and a recovery solution containing (mM) 92 NaCl, 20 HEPES, 30 NaHCO3, 2.5 KCl, 2 CaCl2, 1 MgCl2, 1.2 NaH2PO4, 25 glucose, 1 kynurenic acid, 5 Na-ascorbate, 3 Na-pyruvate, pH set to 7.4 and bubbled with 95% O2/5% CO2
Immediately after slicing, slices were placed for 13 min in warm (33–35 °C) slicing solution and then transferred to recovery solution at room temperature until experimental usage. […] Slices were perfused with bicarbonate-buffered solution, at 34–36 °C for all experiments, containing (mM) 124 NaCl, 2.5 KCl, 26 NaHCO3, 1 NaH2PO4, 2 CaCl2, 1 MgCl2, 10 glucose, bubbled with 95% O2/5% CO2. Microglia were whole-cell clamped with electrodes containing K-gluconate based solution, comprising (mM) 130 K-glu, 4 NaCl, 1 CaCl2, 10 HEPES, 10 EGTA, 4 MgATP, 0.5 Na2GTP, pH set to 7.2 with KOH and osmolarity adjusted to […]. […] Currents were filtered at 1 kHz, digitized (10 kHz) and analysed off-line using pClamp10 software.
A general note: In patch-clamp work, channel activity is measured electrically.

Take `Nc1nonc1-c1nc2ccccc2n1Cc1ccncc1` [C101248]: the IC50 (as a rule, the point on the concentration scale where inhibition reaches its midpoint) is 0.135 µM in data set [1], over 10 µM against ROCK-2 (h), over 10 µM at Syk (h) and over 10 µM against GSK3β (h). For the same compound, the “time of maximal concentration (Cmax)” value in “CNS PK study in mice” (brain, CSF and plasma (all matrices)) was 1 h. For the same compound, the Kp in the data set “CNS PK study in mice” (CSF / unbound plasma, read-out: CSF:unbound plasma) lay within 0.8 to 1.2; in the data set “CNS PK study in mice” (brain (unbound) / plasma (unbound), read-out: unbound partition coefficient (Kpu,u)), 0.7 to 1.5. The “effect on baseline membrane current in THIK-1 KO mice” value in data set [2] (microglia voltage-clamped at 0 mV, THIK-1 KO mice) is “no further changes”. In addition, in data set [2] (voltage steps −150 mV to +60 mV), the “effect on inward or outward currents induced by depolarising voltage steps” value is “no effect”.
